Source: paper PMC10788912 (Journal of Medicinal Chemistry, 2023)
Read-outs that look alike come from different tables or passages of the source.

Assays:
[1] = test system: human cervix adenocarcinoma (HeLa) cells; experiment: Phototoxicity testing, MTT assay, HeLa; format: cell-based
Experimental: (§1) The cells were treated with tested compounds diluted in Earle’s balanced salt solution (EBSS) for 1 h in the dark to allow the complexes to penetrate the cells. Afterward, the cells were irradiated for 1 h with blue light (LZC-4 photoreactor equipped with 16 lamps LZC-420, λmax = 420 nm) or sham irradiated. EBSS containing an Ir complex was then removed, and cells were incubated in the complete, drug-free Dulbecco’s modified Eagle’s medium (DMEM).
(§2) The metabolic activity of the cells (proportional to number of viable cells) was determined 72 h after irradiation using the standard 3-[4,5-dimethylthiazol-2-yl]-2,5 diphenyl tetrazolium bromide (MTT) assay. […] For comparative purposes (and at the reviewer’s request), the clinically used metallodrug cisplatin was included in the experiment.
Therefore, the photoactivation of Ir2 was tested also using a green (λmax = 545 nm) or red (λmax = 613 nm) light irradiation. For this experiment, samples were irradiated with a visible cool white lamp (LZC-Vis, Luzchem), and the appropriate green or red filter was applied; spectral characteristics can be seen in Figure S58.
The phototoxic potency of Ir complexes 1–4 was determined against human cancer Hela, A375, and HCT116 cell lines. […] The number of cells was determined using a standard MTT or SRB assay. […] The phototoxic index (PI) was calculated as a ratio of IC50 (dark)/IC50 (irradiated).

[2] = test system: human lung fibroblast MRC5 cells; experiment: Long-term dark effect on noncancerous cells, MTT, MRC5; format: cell-based; settings: continuous exposure 48 h
Experimental: The low toxicity of nonirradiated Ir complexes toward human noncancerous cells was confirmed by the fact that their effect was very low or even undetectable during long-term exposure when the human primary prostate epithelial hTERT EP156T and human lung fibroblast MRC5 cells were exposed to the complexes continuously for 48 h (Table 2).
After the period of incubation, an MTT assay was performed and evaluated.

[3] = test system: human skin melanoma cells A375; experiment: Phototoxicity testing, MTT assay, A375; format: cell-based; settings: MTT 72 h
Experimental: as §1, §2
(§3) The phototoxic potency of Ir complexes 1–4 was determined against human cancer Hela, A375, and HCT116 cell lines. Cells were seeded on 96-well tissue culture plates at a density of 5 × 10^3 cells/well in 100 μL of complete DMEM medium and cultured overnight in a humidified incubator. […] The number of cells was determined using a standard MTT or SRB assay. […] The phototoxic index (PI) was calculated as a ratio of IC50 (dark)/IC50 (irradiated).

[4] = test system: human colon adenocarcinoma HCT116 cells; experiment: Phototoxicity testing, MTT assay, HCT116; format: cell-based; settings: MTT 72 h
Experimental: as §1, §2, §3

[5] = test system: caspase-3 in HeLa cells; experiment: Caspase-3/7 activity assay; format: cell-based, human; settings: equitoxic concentrations, 1 h dark, 1 h irradiation 420 nm, 2 h recovery
Experimental: Figure 7 and Figure S59 show the morphological alteration observed 2 h after the HeLa cells were treated with Ir complexes 1–4 at their equitoxic concentrations (IC50,72h) and irradiated. […] The whole cells were swollen and rounded (Figure 7B–E). A significant cytoplasm blebbing was evident in the early stages of the process (Figure 7F). The bubbles around the cells were completely clean inside (Figure 7F), distinguishing them from the budding process typical of apoptosis.
The activation of caspase-3 was detected using CellEvent Caspase-3/7 Green - Active Caspase-3/7 Assay Kit (Thermo Fisher Scientific). Briefly, HeLa cells were seeded at a 6-well plate at 3 × 10^5 cells/well density and treated and irradiated as described above (1 h preincubation in the dark, 1 h irradiation at 420 nm). After 2 h of recovery in compound-free media, cells were stained with the CellEventCaspase 3/7 Green Detection Reagent according to the manufacturer’s protocol, and the fluorescence signal was analyzed by flow cytometry.

| SMILES | IC50 ([1]; 1 h dark, then blue light 1 h, λmax = 420 nm, 58 ± 2 W m–2, MTT 72 h after irradiation, read-out: IC50 HeLa irrad) [µM] | IC50 ([1]; sham irradiated, MTT 72 h, read-out: IC50 HeLa sham irrad) [µM] | IC50 [2] [µM] | IC50 ([3]; blue light 1 h, λmax = 420 nm, 58 ± 2 W m–2, read-out: IC50 A375 irrad) [µM] | IC50 ([3]; sham irradiated, read-out: IC50 A375 sham irrad) [µM] | IC50 ([4]; blue light 1 h, λmax = 420 nm, 58 ± 2 W m–2, read-out: IC50 HCT116 irrad) [µM] | IC50 ([4]; sham irradiated, read-out: IC50 HCT116 sham irrad) [µM] | caspase-3 activity [5] |
| --- | --- | --- | --- | --- | --- | --- | --- | --- |
| N.N.[Cl][Pt][Cl] [cisPt, cisplatin] | 27 ± 3 | 23 ± 4 | 6 ± 0.7 | 15 ± 2 | 14 ± 1 | 27 ± 7 | 19 ± 4 | – |
| CN[C@@H]1C[C@H]2O[C@@](C)([C@@H]1OC)n1c3ccccc3c3c4c(c5c6ccccc6n2c5c31)C(=O)NC4 [staurosporine] | – | – | – | – | – | – | – | significantly increased signal |
